Source: ChEMBL document CHEMBL1201862, “PubChem BioAssay data set” (2004)
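A five-concentration, 48-hour dose response in 96-well plates underlies each endpoint, interpolated linearly between surrounding concentrations. GI50 marks 50% less growth.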 The source made the active and inactive calls. No stated cut-off is given here; in the data, active = GI50 up to about 1.1 µM and inactive = higher.

Legend:
Assay in all cases: DTP human tumour cell line panel, 48 h
NCI-H522 = test system: NCI-H522
EKVX = test system: EKVX
HOP-92 = test system: HOP-92
MCF7 = test system: MCF7
786-0 = test system: 786-0
HT-29 = test system: HT-29
MDA-MB-435 = test system: MDA-MB-435
HCT-116 = test system: HCT-116
UACC-257 = test system: UACC-257
SF-268 = test system: SF-268
SNB-75 = test system: SNB-75
SNB-19 = test system: SNB-19
SN12C = test system: SN12C
OVCAR-5 = test system: OVCAR-5
SK-MEL-2 = test system: SK-MEL-2
RPMI-8226 = test system: RPMI-8226
NCI-H23 = test system: NCI-H23
SF-295 = test system: SF-295
OVCAR-8 = test system: OVCAR-8
MDA-N = test system: MDA-N

Measured: GI50

S=c1oc(CCCCCCCCc2nn(CNc3ccccc3)c(=S)o2)nn1CNc1ccccc1
inactive: NCI-H522 > 100 µM | EKVX > 100 µM | HOP-92 > 100 µM | MCF7 > 100 µM | 786-0 > 100 µM | HT-29 > 100 µM | MDA-MB-435 > 100 µM | HCT-116 > 100 µM | UACC-257 > 100 µM | SF-268 > 100 µM | SNB-75 > 100 µM | SNB-19 > 100 µM | SN12C > 100 µM | OVCAR-5 > 100 µM | SK-MEL-2 > 100 µM | RPMI-8226 > 100 µM | NCI-H23 > 100 µM | SF-295 > 100 µM

O=C1CCCC2=C1CC1=C(CCCC1=O)N2c1cccc2ccccc12
inactive: EKVX > 100 µM | HOP-92 33 µM | MCF7 41.1 µM | 786-0 57.1 µM | HT-29 > 100 µM | SF-268 45.1 µM | SNB-75 29.1 µM | SNB-19 75 µM | SN12C > 100 µM | OVCAR-5 > 100 µM | RPMI-8226 > 100 µM | NCI-H23 52.5 µM | OVCAR-8 69.2 µM

Nn1c(CCCCCCCCc2nnc(COc3ccc(Cl)cc3)n2N)nnc1COc1ccc(Cl)cc1
inactive: NCI-H522 81.1 µM | EKVX > 100 µM | HOP-92 > 100 µM | MCF7 > 100 µM | 786-0 > 100 µM | HT-29 > 100 µM | MDA-MB-435 > 100 µM | HCT-116 74.5 µM | UACC-257 > 100 µM | SF-268 > 100 µM | SNB-75 > 100 µM | SNB-19 > 100 µM | SN12C > 100 µM | OVCAR-5 > 100 µM | SK-MEL-2 > 100 µM | RPMI-8226 > 100 µM | NCI-H23 > 100 µM | SF-295 > 100 µM

COc1ccccc1NC(=O)CC(=O)N1N=C(N2c3ccccc3Sc3ccccc32)CC1c1ccccc1 (stereo not drawn)
inactive: NCI-H522 > 100 µM | EKVX > 100 µM | HOP-92 > 100 µM | MCF7 > 100 µM | 786-0 > 100 µM | HT-29 > 100 µM | MDA-MB-435 > 100 µM | HCT-116 > 100 µM | UACC-257 > 100 µM | SF-268 > 100 µM | SNB-75 > 100 µM | SNB-19 > 100 µM | SN12C > 100 µM | OVCAR-5 > 100 µM | SK-MEL-2 > 100 µM | RPMI-8226 > 100 µM | NCI-H23 > 100 µM | SF-295 > 100 µM | OVCAR-8 > 100 µM

CCOC(=O)CSc1nc(-c2ccc(Cl)cc2)c(C#N)c(=O)[nH]1
inactive: NCI-H522 58.5 µM | EKVX > 100 µM | HOP-92 42.3 µM | MCF7 99.5 µM | 786-0 > 100 µM | HT-29 > 100 µM | MDA-MB-435 > 100 µM | HCT-116 72.9 µM | UACC-257 > 100 µM | SF-268 > 100 µM | SNB-75 63.7 µM | SNB-19 74.8 µM | SN12C > 100 µM | OVCAR-5 > 100 µM | SK-MEL-2 > 100 µM | RPMI-8226 > 100 µM | NCI-H23 > 100 µM | SF-295 > 100 µM | OVCAR-8 > 100 µM

CC(=O)[C@@H]1C/C(=C\OCc2ccccc2)O[C@H]1C
inactive: NCI-H522 > 100 µM | EKVX > 100 µM | HOP-92 > 100 µM | 786-0 > 100 µM | HT-29 > 100 µM | MDA-MB-435 > 100 µM | HCT-116 > 100 µM | UACC-257 > 100 µM | SF-268 > 100 µM | SNB-75 > 100 µM | SNB-19 > 100 µM | SN12C > 100 µM | OVCAR-5 > 100 µM | RPMI-8226 > 100 µM | NCI-H23 > 100 µM | SF-295 > 100 µM | OVCAR-8 > 100 µM

O=C1c2ccccc2OP(=O)(OCC(F)(F)F)OC1(C(F)(F)F)C(F)(F)F (stereo not drawn)
inactive: NCI-H522 > 100 µM | EKVX > 100 µM | HOP-92 > 100 µM | 786-0 > 100 µM | HT-29 > 100 µM | HCT-116 > 100 µM | UACC-257 > 100 µM | SF-268 > 100 µM | SNB-75 > 100 µM | SNB-19 > 100 µM | SN12C > 100 µM | OVCAR-5 > 100 µM | SK-MEL-2 > 100 µM | RPMI-8226 > 100 µM | NCI-H23 > 100 µM | SF-295 > 100 µM | OVCAR-8 > 100 µM

Cc1ccc(Cl)c2c(=O)c3ccc(N)cc3sc12
inactive: MDA-N 30.1 µM | EKVX 5.55 µM | MCF7 15.7 µM | 786-0 24.9 µM | HT-29 17.5 µM | HCT-116 16.9 µM | UACC-257 25.8 µM | SF-268 27.9 µM | SNB-75 13.6 µM | SNB-19 27.9 µM | SN12C 15.7 µM | OVCAR-5 28 µM | SK-MEL-2 20.1 µM | RPMI-8226 15 µM | NCI-H23 23.9 µM | SF-295 13.5 µM | OVCAR-8 13.2 µM
